Assay results: patent US11229635B2, “Method of treating fibrosis” (BCN Biosciences L.L.C., priority 2016, dated 2022)

What was measured:
[1] = test system: Lewis lung (LLC) tumors; assay: Lewis lung (LLC) artificial metastasis model, lung tumor colonies; type: in vivo, C57Bl/6 and C3H mice
Method: One of the major concerns of the Food and Drug Administration for the application of radiation mitigators in RT is that if an agent can protect normal tissue from radiation damage, it may also protect tumor tissues. […] The syngeneic model of artificial metastasis used Lewis lung (LLC) tumors, and since LLC also grow in C3H mice, this could be employed as an allogeneic model. C57B1/6 and C3H mice were injected i.v. with 5×10^4 tumor cells. Subcutaneous drug injections were started on day +3 when the tumors were established in the lung in order to bias the experiment in favor of tumor growth promotion. The dose regimen was arbitrarily assigned to a dose of 20 mg/kg for 5 days. LTI was started on day 4, with 4 Gy doses administered daily for 3 days. This is higher than conventional 2 Gy to compensate for the more rapid growth of murine tumors, but is still well within the range used clinically in hypofractionated therapy.

[2] = test system: human A549 adenocarcinoma cells; assay: A549 xenograft lung colony model in nude mice; type: in vivo; settings: 20 mg/kg sc once daily for 5 days, with or without 4 Gy LTI x 3, day 72
Method: LTI alone decreased the number of co […] lonies by 40%. Extensive analysis of the drug doses that would be optimal for exerting effects on tumors in the radiation setting are still needed, but there is no evidence for enhanced tumor growth as a result of radiation treatment with drug, and in fact exactly the opposite. […] Thirty-two nude mice were injected intravenously with 5×10^4 human A549 adenocarcinoma cells on day 1. The drug was administered starting at day 3; 20 mg/kg BCN512 was injected subcutaneously once daily for 5 days. Fractionated radiation was started on day 4, with 4 Gy LTI administered daily for 3 days. Tumors developed very slowly, so the mice were sacrificed on day 72 and the number of nodules in the lungs were counted. There was considerable variation in the irradiated group, with a tendency for lung irradiation to increase the number of tumor colonies. This is not a unique observation that may be ascribed to radiation-induced myeloid cell mobilization.

[3] = test system: bone marrow hematopoietic stem cells (HSCs); assay: Total body irradiation survival (hematopoietic suppression); type: in vivo, C3H/HeN mice
Method: FIG. 8A-C: (A) Kaplan Meier Plot of Male C3H/HeN mice 7.75Gy 30 Day TBI (n=30) 50 mg/kg BCN057. (B). Kaplan Meier Plot of Female C3H/HeN mice 7.75Gy 30 Day TBI (n=10) 25 mg/kg BCN057. (C) Cytokine Profile in Plasma Male C3H/HeN mice 7.75Gy TBI Day 8 receiving BCN057.
7.75 Gy radiation is used to ablate bone marrow hematopoietic stem cells (HSCs) in these strains of mice. […] Lethality from bone marrow suppression occurs in the 14-25 day region due to the life cycle of approximately 2 weeks for RBC and inability to replace them without HSCs
7.73 Gy radiation is used to ablate bone marrow HSCs in the C3H strain of mice.

[4] = test system: canonical Wnt-β catenin signaling; assay: TCF/LEF luciferase reporter assay in HEK293 cells; type: cell-based; settings: 28 μM, 24 h, vs vehicle treated cells
Method: LiCl (10 mM) treatment was used as positive control for luciferase activity. Luciferase activity was determined after 24 h using a Dual-Luciferase® Reporter Assay System (Promega) as per manufacturer's protocol. HEK293 cells containing a FOPFlash construct were used as a negative control.

[5] = test system: WINT target gene expression; assay: Wnt target gene expression; settings: FIG. 23

O=[N+]([O-])c1ccc(S(=O)(=O)N2CCN(c3ccccc3)CC2)cc1 [BCN512, 1-[(4-nitrobenezene)sulfonyl]-4-phenyl piperazine]
lung tumor colony size ([1]; both strains, vs control): smaller in size than control | decrease of the number of lung tumor colonies ([1]; day 14, 20 mg/kg sc for 5 days, both C3H and C57 mouse strains, P<0.05): 20% | number of tumor colonies (lung nodules) [2]: did not increase the number of tumor colonies | lethality from bone marrow suppression ([3]; 7.73 Gy TBI, C3H strain of mice): sufficient to prevent lethality from bone marrow suppression | efficacy in total body irradiation experiments ([3]; Deoxycholate formulation, subcutaneously): good efficacy | luciferase activity [4]: significantly increased luciferase activity | Wnt target gene expression [5]: induces the WINT target gene expression
